Source: paper PMC4987127 (Leukemia, 2015)
One block for each compound: values may come before it.

How the values were obtained:
[1] = test system: FLT3-mediated signaling pathways; assay: FLT3-mediated signaling pathways in FLT3-ITD positive cell lines; type: cell-based
PLCγ = assay: BTK signaling in AML cell lines: downstream mediators; type: cell-based; details: for effect on PLCγ phosphorylation: direct downstream target of BTK
AKT and ERK = assay: Phosphorylation of AKT and ERK in AML cell lines; type: cell-based
[2] = test system: FLT3-ITD mutant AML cell lines (MOLM13, MOLM14 and MV4-11); assay: Proliferation screen of a panel of AML cell lines; type: cell-based; details: panel of AML cell lines spanning M0–M7; only FLT3-ITD mutant lines MOLM13, MOLM14, MV4-11
[3] = test system: OCI-AML3 and NOMO-1 cells; assay: FLT3-mediated signaling in FLT3 low expression cell lines; type: cell-based
[4] = test system: FLT3-ITD-dependent isogenic BaF3 cell line; assay: Isogenic BaF3 cell proliferation; type: cell-based
FLT3-D835H-BaF3 = assay: Isogenic BaF3 cell proliferation; type: cell-based; details: Mus musculus
FLT3-D835Y-BaF3 = assay: Isogenic BaF3 cell proliferation; type: cell-based; details: Mus musculus
TEL-FLT3-wt-BaF3 = assay: Isogenic BaF3 cell proliferation; type: cell-based; details: Mus musculus
ITD-D835Y = assay: Isogenic BaF3 cell proliferation; type: cell-based
ITD-F691L = assay: Isogenic BaF3 cell proliferation; type: cell-based
FLT3-K663Q = assay: Isogenic BaF3 cell proliferation; type: cell-based
c-Kit Ba/F3 cells = assay: Oncogene-expressing Ba/F3 cell growth; type: cell-based
PDGFRα Ba/F3 cells = assay: Oncogene-expressing Ba/F3 cell growth; type: cell-based
BCR-ABL Ba/F3 cells = assay: Oncogene-expressing Ba/F3 cell growth; type: cell-based
NRAS Ba/F3 cells = assay: Oncogene-expressing Ba/F3 cell growth; type: cell-based
FLT3 kinase = FLT3 kinase (Homo sapiens, UniProt P36888); assay: Binding mode examination; details: molecular modeling, confirmed by washing-out experiment
Sequence of FLT3 kinase (P36888 27-993): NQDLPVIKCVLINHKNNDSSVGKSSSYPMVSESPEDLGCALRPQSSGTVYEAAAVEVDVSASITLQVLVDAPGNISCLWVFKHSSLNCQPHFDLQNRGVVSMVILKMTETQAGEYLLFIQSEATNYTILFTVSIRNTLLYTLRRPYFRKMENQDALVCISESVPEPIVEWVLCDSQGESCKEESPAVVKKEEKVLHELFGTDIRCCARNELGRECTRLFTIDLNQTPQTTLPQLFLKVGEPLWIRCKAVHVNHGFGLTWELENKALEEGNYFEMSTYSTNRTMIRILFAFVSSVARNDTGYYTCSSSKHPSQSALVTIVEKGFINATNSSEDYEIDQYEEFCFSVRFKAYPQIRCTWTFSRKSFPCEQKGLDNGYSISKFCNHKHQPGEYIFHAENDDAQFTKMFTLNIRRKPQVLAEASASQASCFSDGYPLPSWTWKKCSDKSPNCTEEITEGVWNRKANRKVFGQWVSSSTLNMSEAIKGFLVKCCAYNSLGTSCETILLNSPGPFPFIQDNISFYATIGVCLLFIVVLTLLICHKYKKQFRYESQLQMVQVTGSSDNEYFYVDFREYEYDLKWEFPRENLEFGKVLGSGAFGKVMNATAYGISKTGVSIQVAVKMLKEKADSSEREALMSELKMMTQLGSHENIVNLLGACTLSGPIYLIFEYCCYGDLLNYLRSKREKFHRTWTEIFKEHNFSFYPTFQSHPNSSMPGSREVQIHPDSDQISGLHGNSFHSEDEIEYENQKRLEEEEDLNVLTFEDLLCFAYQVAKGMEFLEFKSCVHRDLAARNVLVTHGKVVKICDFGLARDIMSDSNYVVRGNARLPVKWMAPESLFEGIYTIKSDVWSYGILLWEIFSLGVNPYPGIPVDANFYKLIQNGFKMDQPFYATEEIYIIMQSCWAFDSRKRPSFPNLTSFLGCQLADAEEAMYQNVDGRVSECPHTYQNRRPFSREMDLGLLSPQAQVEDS

FLT3-ITD cell lines = assay: Apoptotic cell death; type: cell-based; details: concentration- and time-dependent
[5] = test system: FLT3-ITD mutant-expressing primary patient cells; assay: Anti-proliferation on primary patient cells; type: cell-based
[6] = test system: BTK-KD MOLM14 and MOLM13 cells; details: BTK knockdown MOLM14 and MOLM13
U937 cells = U937 cells ref 11; cited from earlier work
HL60 = HL60 ref 11; cited from earlier work
TF-1 = TF-1 ref 11; cited from earlier work
THP-1 = THP-1 ref 11; cited from earlier work
BTK kinase = BTK kinase (Homo sapiens, UniProt Q06187); assay: BTK signaling in AML cell lines: BTK phosphorylation; type: cell-based; details: FLT3 wt and FLT3-ITD cell lines
Sequence of BTK kinase (Q06187 whole entry): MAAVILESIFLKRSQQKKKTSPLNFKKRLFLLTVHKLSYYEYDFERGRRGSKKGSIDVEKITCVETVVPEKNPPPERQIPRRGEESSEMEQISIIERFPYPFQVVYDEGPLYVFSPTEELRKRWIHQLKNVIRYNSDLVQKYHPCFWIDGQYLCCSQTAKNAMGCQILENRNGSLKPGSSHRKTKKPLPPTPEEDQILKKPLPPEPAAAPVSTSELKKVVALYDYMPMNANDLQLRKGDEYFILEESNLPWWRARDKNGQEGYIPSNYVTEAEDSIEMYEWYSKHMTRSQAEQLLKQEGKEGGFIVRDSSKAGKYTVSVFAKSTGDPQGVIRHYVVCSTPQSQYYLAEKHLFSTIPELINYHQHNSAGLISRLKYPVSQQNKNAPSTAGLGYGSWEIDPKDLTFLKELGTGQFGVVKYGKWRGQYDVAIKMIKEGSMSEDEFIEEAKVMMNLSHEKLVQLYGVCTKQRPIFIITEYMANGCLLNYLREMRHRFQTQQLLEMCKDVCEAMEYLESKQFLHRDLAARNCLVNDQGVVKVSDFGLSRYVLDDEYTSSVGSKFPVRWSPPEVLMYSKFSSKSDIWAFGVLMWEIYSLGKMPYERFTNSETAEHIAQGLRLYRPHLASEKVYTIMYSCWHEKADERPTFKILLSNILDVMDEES

Structure (SMILES): Cc1c(NC(=O)c2ccc(C(C)(C)C)cc2)cccc1-c1cn(C)c(=O)c(Nc2ccc(C(=O)N3CCOCC3)cc2)n1 [CGI-1746]
effect on FLT3-mediated signaling [1]: did not exhibit any effect
effect on PLCγ phosphorylation (PLCγ): effective
effect on phosphorylation of AKT and ERK (AKT and ERK): no effect

Structure (SMILES): C=CC(=O)N1CCC[C@@H](n2nc(-c3ccc(Oc4ccccc4)cc3)c3c(N)ncnc32)C1 [ibrutinib, Ibrutinib]
sensitivity to ibrutinib (proliferation) [2]: sensitive
effect on FLT3-related signaling [3]: not affected
effect on downstream mediators of BTK kinase (PLCγ; only in FLT3 wt-expressing cell lines (NOMO-1 and OCI-AML3)): affected
rescue of inhibitory effect by IL-3 treatment ([4]; FLT3-ITD BaF3 with IL-3): completely rescued
GI50 ([4]; Mus musculus, BaF3): 120 nM
GI50 (FLT3-D835H-BaF3): 63 nM
GI50 (FLT3-D835Y-BaF3): 500 nM
GI50 (TEL-FLT3-wt-BaF3): 460 nM
activity against mutation (ITD-D835Y): less active
activity against mutation (ITD-F691L): less active
activity against mutation (FLT3-K663Q): less active
effect on growth (c-Kit Ba/F3 cells): did not affect the growth
effect on growth (PDGFRα Ba/F3 cells): did not affect the growth
effect on growth (BCR-ABL Ba/F3 cells): did not affect the growth
effect on growth (NRAS Ba/F3 cells): did not affect the growth
mode of inhibition of FLT3 kinase (FLT3 kinase): reversible binding
apoptotic cell death (FLT3-ITD cell lines): induced apoptotic cell death
anti-proliferation activity [5]: dose-dependent anti-proliferation activity
growth of BTK-KD cells [6]: significantly blocked the growth
inhibition of proliferation (U937 cells): moderate inhibition of proliferation
activity against AML cell line (HL60): no apparent activity
activity against AML cell line (TF-1): no apparent activity
activity against AML cell line (THP-1): no apparent activity

effect on BTK kinase phosphorylation/activity (BTK kinase): did not affect
Structure (SMILES): CC(C)(C)c1cc(NC(=O)Nc2ccc(-c3cn4c(n3)sc3cc(OCCN5CCOCC5)ccc34)cc2)no1 [AC220]
effect on PLCγ phosphorylation (PLCγ): did not affect
effect on phosphorylation of AKT and ERK (AKT and ERK): inhibited

effect on BTK kinase phosphorylation/activity (BTK kinase): effective
Structure (SMILES): C=CC(=O)Nc1cccc(Nc2nc(Nc3ccc(OCCOC)cc3)ncc2F)c1 [AVL-292]
effect on FLT3-mediated signaling [1]: did not exhibit any effect
effect on PLCγ phosphorylation (PLCγ): effective
effect on phosphorylation of AKT and ERK (AKT and ERK): no effect
